pKi: −log10 of the molar value.
Legend:
[1] = molecular target: human orexin-2 receptor (Homo sapiens (Human), UniProt O43614); assay: Human orexin 2 receptor radioligand binding ([3H]-EMPA competition); details: HEK293 cells stably expressing human orexin-2 receptor; [3H]-EMPA 5 nM final; read-out: OR-2 Ki
Outline: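 Competition binding on HEK293 cells stably expressing human orexin-2 receptor, using 5 nM final [3H]-EMPA in PBS, compounds 0.1 nM to 10 μM (DMSO ≤0.1%). 60 min at room temperature, then filtration and scintillation counting; nonspecific binding defined with 10 μM of a reference antagonist.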

[2] = molecular target: human orexin 1 receptor (Homo sapiens (Human), UniProt O43613); assay: Human orexin 1 receptor radioligand binding ([3H]-SB674042 competition); details: CHO cells stably expressing human orexin 1 receptor; [3H]-SB674042 4 nM final; read-out: OR-1 Ki
Outline: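 CHO cells stably expressing human OX1R incubated 60 min at room temperature with [3H]-SB674042 and compounds (7 concentrations, 0.1 nM–10 μM; DMSO ≤0.1%) in PBS. Nonspecific binding defined with 10 μM of a reference urea antagonist; bound radioactivity measured by filtration and scintillation counting.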

Chain of human orexin 1 receptor (O43613 whole entry): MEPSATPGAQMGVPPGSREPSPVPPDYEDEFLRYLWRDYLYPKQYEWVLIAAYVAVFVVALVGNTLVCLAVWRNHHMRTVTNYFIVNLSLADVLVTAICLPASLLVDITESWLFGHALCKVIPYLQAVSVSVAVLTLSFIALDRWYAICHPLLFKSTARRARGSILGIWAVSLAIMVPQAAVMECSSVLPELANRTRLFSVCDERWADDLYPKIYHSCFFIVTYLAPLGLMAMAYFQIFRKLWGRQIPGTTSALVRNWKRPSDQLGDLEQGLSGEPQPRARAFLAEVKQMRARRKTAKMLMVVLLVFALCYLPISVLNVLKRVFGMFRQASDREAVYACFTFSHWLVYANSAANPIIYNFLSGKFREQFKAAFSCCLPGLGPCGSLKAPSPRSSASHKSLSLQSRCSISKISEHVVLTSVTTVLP
Chain of human orexin-2 receptor (O43614 whole entry): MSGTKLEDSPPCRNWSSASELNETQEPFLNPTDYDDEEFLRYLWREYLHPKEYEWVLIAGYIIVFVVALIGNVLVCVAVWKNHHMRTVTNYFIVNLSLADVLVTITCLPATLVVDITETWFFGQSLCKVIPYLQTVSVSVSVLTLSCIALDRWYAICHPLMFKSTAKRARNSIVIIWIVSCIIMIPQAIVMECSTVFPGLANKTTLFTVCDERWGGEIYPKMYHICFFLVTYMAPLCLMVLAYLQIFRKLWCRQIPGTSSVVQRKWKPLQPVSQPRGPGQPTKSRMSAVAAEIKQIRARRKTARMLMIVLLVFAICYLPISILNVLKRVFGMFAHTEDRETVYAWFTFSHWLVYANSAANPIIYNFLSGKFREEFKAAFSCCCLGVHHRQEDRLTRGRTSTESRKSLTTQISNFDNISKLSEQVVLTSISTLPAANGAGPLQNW

| pKi [1] | pKi [2] | Structure (SMILES) |
| --- | --- | --- |
| 7.11 | 6.94 | O=C(c1ccccc1-c1cccs1)N1CC2CN(c3cnc4ccccc4n3)C2C1 (stereo not shown) [Example 49, 2-{3-[(2-Thiophen-2-ylphenyl)carbonyl]-3,6-diazabicyclo[3.2.0]hept-6-yl}quinoxaline] |
| 7.54 | 5.45 | Cc1cc(C)nc(N2CC3CN(C(=O)c4ccccc4-c4cccs4)CC32)n1 (stereo not shown) [Example 57, 6-(4,6-Dimethylpyrimidin-2-yl)-3-[(2-thiophen-2-ylphenyl)carbonyl]-3,6-diazabicyclo[3.2.0]heptane] |
| 7.96 | 7.80 | Cc1nc(N2C[C@@H]3CCN(C(=O)c4ccccc4-n4nccn4)C[C@@H]32)nc(C)c1C [Example 270, (1R,6S)-3-{[2-(2H-1,2,3-Triazol-2-yl)phenyl]carbonyl}-8-(4,5,6-trimethylpyrimidin-2-yl)-3,8-diazabicyclo[4.2.0]octane] |
| 6.12 | 5.42 | Cc1cc(C)nc(N2C[C@H]3CCN(C(=O)c4ccccc4-c4ccccc4)C[C@H]32)n1 [Example 18, (1S,6R)Biphenyl-2-yl-[8-(4,6-dimethyl-pyrimidin-2-yl)-3,8-diaza-bicyclo[4.2.0]oct-3-yl]-methanone] |
| 7.03 | 7.41 | O=C(c1ccccc1-c1cccs1)N1CC2CN(c3nccc(-c4ccccc4)n3)C2C1 (stereo not shown) [Example 50, 6-(4-Phenylpyrimidin-2-yl)-3-[(2-thiophen-2-ylphenyl)carbonyl]-3,6-diazabicyclo[3.2.0]heptane] |
| 5.96 | 5.00 | CNc1cc(N2C[C@@H]3CCN(C(=O)c4cc(F)ccc4-n4nccn4)C[C@@H]32)ncn1 [Example 190, 6-[(1R,6S)-3-{[5-Fluoro-2-(2H-1,2,3-triazol-2-yl)phenyl]carbonyl}-3,8-diazabicyclo[4.2.0]oct-8-yl]-N-methylpyrimidin-4-amine] |
| 6.51 | 5.00 | CNc1nc(C)cc(N2C[C@@H]3CCN(C(=O)c4cc(F)ccc4-n4nccn4)C[C@@H]32)n1 [Example 187, 4-[(1R,6S)-3-{[5-Fluoro-2-(2H-1,2,3-triazol-2-yl)phenyl]carbonyl}-3,8-diazabicyclo[4.2.0]oct-8-yl]-N,6-dimethylpyrimidin-2-amine] |
| 6.31 | 5.00 | Cc1cc(C)nc(N2C[C@@H]3CCN(C(=O)c4c(-c5ccccc5)noc4C)C[C@@H]32)n1 [Example 175, (1R,6S)-8-(4,6-Dimethylpyrimidin-2-yl)-3-[(5-methyl-3-phenylisoxazol-4-yl)carbonyl]-3,8-diazabicyclo[4.2.0]octane] |
| 6.68 | 6.18 | COc1cccc(OC)c1C(=O)N1CCC2CN(c3cnc4ccccc4n3)C2C1 (stereo not shown) [Example 12, (2,6-Dimethoxy-phenyl)-(8-quinoxalin-2-yl-3,8-diaza-bicyclo[4.2.0]oct-3-yl)-methanone] |
| 6.47 | 5.62 | Cc1cc(C)nc(N2C[C@@H]3CCN(C(=O)c4ncoc4-c4ccccc4F)C[C@@H]32)n1 [Example 177, (1R,6S)-8-(4,6-Dimethylpyrimidin-2-yl)-3-{[5-(2-fluorophenyl)-1,3-oxazol-4-yl]carbonyl}-3,8-diazabicyclo[4.2.0]octane] |
| 7.15 | 5.78 | Cc1cc(C)nc(N2C[C@@H]3CCN(C(=O)c4cccc(C)c4-n4ccnn4)C[C@@H]32)n1 [Example 138, (1R,6S)-8-(4,6-Dimethylpyrimidin-2-yl)-3-{[3-methyl-2-(1H-1,2,3-triazol-1-yl)phenyl]carbonyl}-3,8-diazabicyclo[4.2.0]octane] |
| 6.26 | 5.00 | Cc1cc(C)nc(N2C[C@@H]3CCN(C(=O)c4cc(F)ccc4-c4cncnc4)C[C@@H]32)n1 [Example 165, (1R,6S)-8-(4,6-Dimethylpyrimidin-2-yl)-3-[(5-fluoro-2-pyrimidin-5-ylphenyl)carbonyl]-3,8-diazabicyclo[4.2.0]octane] |
| 6.75 | 5.30 | Cc1cncc(N2C[C@@H]3CCN(C(=O)c4cc(F)ccc4-n4nccn4)C[C@@H]32)n1 [Example 111, (1R,6S)-3-{[5-Fluoro-2-(2H-1,2,3-triazol-2-yl)phenyl]carbonyl}-8-(6-methylpyrazin-2-yl)-3,8-diazabicyclo[4.2.0]octane] |
| 7.36 | 7.74 | Cc1ccc(-c2ccccc2C(=O)N2CC[C@H]3CN(c4cnc5ccccc5n4)[C@H]3C2)cc1 [Example 10, (1R,6S)(4′-Methyl-biphenyl-2-yl)-(8-quinoxalin-2-yl-3,8-diaza-bicyclo[4.2.0]oct-3-yl)-methanone] |
| 6.38 | 5.00 | Cc1cnc(N2C[C@@H]3CCN(C(=O)c4ccc(F)cc4-n4nccn4)C[C@@H]32)cn1 [Example 102, (1R,6S)-3-{[4-Fluoro-2-(2H-1,2,3-triazol-2-yl)phenyl]carbonyl}-8-(5-methylpyrazin-2-yl)-3,8-diazabicyclo[4.2.0]octane] |
| 7.80 | 6.56 | COc1ccc(-n2nccn2)c(C(=O)N2CC[C@H]3CN(c4nc(C)cc(C)n4)[C@H]3C2)c1 [Example 134, (1R,6S)-8-(4,6-Dimethylpyrimidin-2-yl)-3-{[5-methoxy-2-(2H-1,2,3-triazol-2-yl)phenyl]carbonyl}-3,8-diazabicyclo[4.2.0]octane] |
| 6.55 | 6.34 | COc1cccc(OC)c1C(=O)N1CCC2CN(c3nc4ccccc4o3)C2C1 (stereo not shown) [Example 16, (8-Benzooxazol-2-yl-3,8-diaza-bicyclo[4.2.0]oct-3-yl)-(2,6-dimethoxy-phenyl)-methanone] |
| 7.96 | 6.49 | Cc1cc(C)nc(N2C[C@@H]3CCN(C(=O)c4c(F)cccc4-n4nccn4)C[C@@H]32)n1 [Example 29, (1R,6S)-[8-(4,6-Dimethyl-pyrimidin-2-yl)-3,8-diaza-bicyclo[4.2.0]oct-3-yl]-(2-fluoro-6-[1,2,3]triazol-2-yl-phenyl)-methanone] |
| 7.51 | 5.77 | O=C(c1cc(F)ccc1-n1nccn1)N1CC[C@H]2CN(c3cc(C(F)(F)F)ccn3)[C@H]2C1 [Example 130, (1R,6S)-3-{[5-Fluoro-2-(2H-1,2,3-triazol-2-yl)phenyl]carbonyl}-8-[4-(trifluoromethyl)pyridin-2-yl]-3,8-diazabicyclo[4.2.0]octane] |
| 8.30 | 7.96 | CN(C)c1nc(N2C[C@@H]3CCN(C(=O)c4ccccc4-n4nccn4)C[C@@H]32)cc(C(F)(F)F)n1 [Example 36, (1R,6S)-[8-(2-Dimethylamino-6-trifluoromethyl-pyrimidin-4-yl)-3,8-diaza-bicyclo[4.2.0]oct-3-yl]-(2-[1,2,3]triazol-2-yl-phenyl)-methanone] |
| 6.79 | 5.05 | Cc1cncc(N2C[C@@H]3CCN(C(=O)c4c(F)cccc4-n4nccn4)C[C@@H]32)n1 [Example 113, (1R,6S)-3-{[2-Fluoro-6-(2H-1,2,3-triazol-2-yl)phenyl]carbonyl}-8-(6-methylpyrazin-2-yl)-3,8-diazabicyclo[4.2.0]octane] |
| 6.88 | 6.69 | O=C(c1ccccc1-c1ccccc1)N1CC2CN(c3nccc(-c4ccccc4)n3)C2C1 (stereo not shown) [Example 47, 3-(Biphenyl-2-ylcarbonyl)-6-(4-phenylpyrimidin-2-yl)-3,6-diazabicyclo[3.2.0]heptane] |
| 7.74 | 7.64 | O=C(c1c(F)cccc1-n1nccn1)N1CC[C@H]2CN(c3cnc4ccccc4n3)[C@H]2C1 [Example 117, 2-[(1R,6S)-3-{[2-Fluoro-6-(2H-1,2,3-triazol-2-yl)phenyl]carbonyl}-3,8-diazabicyclo[4.2.0]oct-8-yl]quinoxaline] |
| 7.44 | 6.26 | Cc1cc(C)nc(N2C[C@@H]3CCN(C(=O)c4cccc(C)c4-n4cccn4)C[C@@H]32)n1 [Example 133, (1R,6S)-8-(4,6-Dimethylpyrimidin-2-yl)-3-{[3-methyl-2-(1H-pyrazol-1-yl)phenyl]carbonyl}-3,8-diazabicyclo[4.2.0]octane] |

| Structure (SMILES) | pKi [1] | pKi [2] |
| --- | --- | --- |
| Cc1ccc(-n2nccn2)c(C(=O)N2CC3CN(c4nccc(-c5ccccc5)n4)C3C2)c1 (stereo not shown) [Example 69] | 7.21 | 6.89 |
| Cc1cc(C)nc(N2C[C@@H]3CCN(C(=O)c4ccccc4-c4cccs4)C[C@@H]32)n1 [Example 1, (1R,6S)[8-(4,6-Dimethyl-pyrimidin-2-yl)-3,8-diaza-bicyclo[4.2.0]oct-3-yl]-(2-thiophen-2-yl-phenyl)-methanone] | 8.40 | 7.19 |
| Cc1cc(C)nc(N2C[C@@H]3CCN(C(=O)c4ncccc4-n4nccn4)C[C@@H]32)n1 [Example 183, (1R,6S)-8-(4,6-Dimethylpyrimidin-2-yl)-3-{[3-(2H-1,2,3-triazol-2-yl)pyridin-2-yl]carbonyl}-3,8-diazabicyclo[4.2.0]octane] | 6.70 | 5.00 |
| Cc1ccc(-n2nccn2)c(C(=O)N2CC[C@H]3CN(c4nc(C)cc(C)n4)[C@H]3C2)c1 [Example 26, (1R,6S)-[8-(4,6-Dimethyl-pyrimidin-2-yl)-3,8-diaza-bicyclo[4.2.0]oct-3-yl]-(5-methyl-2-[1,2,3]triazol-2-yl-phenyl)-methanone] | 7.89 | 7.28 |
| Cc1nccnc1N1C[C@@H]2CCN(C(=O)c3ccccc3-n3nccn3)C[C@@H]21 [Example 105, (1R,6S)-8-(3-Methylpyrazin-2-yl)-3-{[2-(2H-1,2,3-triazol-2-yl)phenyl]carbonyl}-3,8-diazabicyclo[4.2.0]octane] | 5.00 | 5.00 |

Source: patent US8680275B2, “Fused heterocyclic compounds as orexin receptor modulators” (Janssen Pharmaceutica NV, priority 2009, dated 2014)
